Measured values: US7932269B2, “Sulfonamides as orexin antagonists” (Hoffmann-La Roche Inc., priority 2008, dated 2011)

Target: T1, human orexin-2 (hOX2) receptors (Homo sapiens, UniProt O43614)
T1 construct: expressed in transfected cells
T1 sequence (O43614 1-444): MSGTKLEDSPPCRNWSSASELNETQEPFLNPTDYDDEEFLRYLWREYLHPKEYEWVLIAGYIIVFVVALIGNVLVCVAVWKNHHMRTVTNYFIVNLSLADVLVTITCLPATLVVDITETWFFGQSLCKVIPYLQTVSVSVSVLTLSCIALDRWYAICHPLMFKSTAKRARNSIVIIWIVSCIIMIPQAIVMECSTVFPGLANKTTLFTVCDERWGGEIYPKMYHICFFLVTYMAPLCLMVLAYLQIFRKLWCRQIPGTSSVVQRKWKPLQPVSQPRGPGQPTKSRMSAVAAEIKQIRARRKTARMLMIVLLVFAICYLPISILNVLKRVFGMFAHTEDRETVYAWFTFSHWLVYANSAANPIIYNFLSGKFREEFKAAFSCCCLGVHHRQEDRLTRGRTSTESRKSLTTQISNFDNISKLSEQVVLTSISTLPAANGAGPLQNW
Test: Intracellular Ca2+ mobilization assay (FLIPR), orexin-A as agonist
Format: cell-based
Details: CHO(dHFr-) cells stably expressing hOX2; antagonist applied 25 min before EC80 of orexin-A; Kb=IC50/(1+[A]/EC50); read-out: Kb (μM) OX2R (human)
Procedure: Intracellular Ca^2+ Mobilization Assay
The Chinese Hamster Ovary (dHFr-) mutant cell line stably expressing human orexin-1 (hOX1) or human orexin-2 (hOX2) receptors were maintained in Dulbecco's Modified Eagle Medium (1X) with GlutaMax™ 1, 4500 mg/L D-Glucose and Sodium Pyruvate (Catalog No. 31966-021, Invitrogen, Carlsbad, Calif.), 5% dialyzed fetal calf serum (Catalog No. 26400-044), 100 μg/ml penicillin and 100 μg/ml streptomycin. The cells were seeded at 5×10^4 cells/well in the poly-D-lysine treated, 96-well, black/clear-bottomed plates (Catalog No. BD356640, BD Biosciences, Palo Alto, Calif.). 24 h later, the cells were loaded for 1 hr at 37° C. with 4 μM Flou-4 acetoxymethyl ester (Catalog No. F-14202, Molecular Probes, Eugene, Oreg.) in FLIPR buffer (1×HBSS, 20 mM HEPES, 2.5 mM Probenecid). Hanks' Balanced Salt Solution (HBSS) (10X) (catalog No. 14065-049) and HEPES (1M) (catalog No. 15630-056) were purchased from Invitrogen, Carlsbad, Calif. Probenecid (250 mM) (catalog No. P8761) was from Sigma, Buchs, Switzerland. The cells were washed five times with FLIPR buffer to remove excess dye and intracellular calcium mobilization, [Ca^2+] were measured using a Fluorometric Imaging Plate Reader (FLIPR-96, Molecular Devices, Menlo Park, Calif.) as described previously (Malherbe et al., Mol. Pharmacol., 64, 823-832, 2003). Orexin A (catalog No.1455, Toris Cookson Ltd, Bristol, UK) was used as agonist. Orexin A ([…] stock solution in DMSO) was diluted in FLIPR buffer +0.1% BSA. The EC50 and EC80 values of orexin-A were measured daily from standard agonist concentration-response curves in CHO(dHFr-)-OX1R and —OX2R cell lines. All compounds were dissolved in 100% DMSO. Inhibition curves were determined by addition of 11 concentrations (0.0001-10 μM) of inhibitory compounds and using EC80 value of orexin-A as agonist (a concentration which gave 80% of max agonist response, determined daily). The antagonists were applied 25 min (incubation at 37° C.) before the application of the agonist. Responses were measured as peak increase in fluorescence minus basal, normalized to the maximal stimulatory effect induced by EC80 value of orexin-A or orexin-B. Inhibition curves were fitted according to the Hill equation: y=100/(1+(x/1C50)^nH), where nH=slope factor using Excel-fit 4 software (Microsoft). Kb values were calculated according to the following equation Kb=IC50/(1+[A]/EC50) where A is the concentration of agonist added which is very close to agonist EC80 value, and IC50 and EC50 values were derived from the antagonist inhibition and orexin-A or B agonist curves, respectively.

Kb [µM]	Structure (SMILES)
0.0017	COc1cccc(S(=O)(=O)N(CC(=O)N2CCCC2c2ccccc2)c2ccc(Cl)cc2)c1 (centres unmarked) [Example 1, N-(4-Chloro-phenyl)-3-methoxy-N-[2-oxo-2-(2-phenyl-pyrrolidin-1-yl)-ethyl]-benzenesulfonamide]
0.0049	COc1ccc(S(=O)(=O)N(CC(=O)N2CCCC2c2ccccc2)c2ccc(Cl)cc2)cc1 (centres unmarked) [Example 2, N-(4-Chloro-phenyl)-4-methoxy-N-[2-oxo-2-(2-phenyl-pyrrolidin-1-yl)-ethyl]-benzenesulfonamide]
0.0005	Cc1ccccc1S(=O)(=O)N(CC(=O)N1CCCC1c1ccccc1)c1ccc(Cl)cc1 (centres unmarked) [Example 3, N-(4-Chloro-phenyl)-2-methyl-N-[2-oxo-2-(2-phenyl-pyrrolidin-1-yl)-ethyl]-benzenesulfonamide]
0.0011	O=C(CN(c1ccc(Cl)cc1)S(=O)(=O)c1cccc(Cl)c1)N1CCCC1c1ccccc1 (centres unmarked) [Example 4, 3-Chloro-N-(4-chloro-phenyl)-N-[2-oxo-2-(2-phenyl-pyrrolidin-1-yl)-ethyl]-benzenesulfonamide]
0.0019	Cc1ccc(S(=O)(=O)N(CC(=O)N2CCCC2c2ccccc2)c2ccc(Cl)cc2)cc1 (centres unmarked) [Example 5, N-(4-Chloro-phenyl)-4-methyl-N-[2-oxo-2-(2-phenyl-pyrrolidin-1-yl)-ethyl]-benzenesulfonamide]
0.0042	COc1ccc(S(=O)(=O)N(CC(=O)N2CCCC2c2ccccc2)c2ccc(Cl)cc2)cc1 (centres unmarked) [Example 6, N-(4-Chloro-phenyl)-4-methoxy-N-[2-oxo-2-(2-phenyl-pyrrolidin-1-yl)-ethyl]-benzenesulfonamide]
0.0007	O=C(CN(c1ccc(Cl)cc1)S(=O)(=O)c1ccccc1Cl)N1CCCC1c1ccc(F)cc1 (centres unmarked) [Example 7, 2-Chloro-N-(4-chloro-phenyl)-N-{2-[2-(4-fluoro-phenyl)-pyrrolidin-1-yl]-2-oxo-ethyl}-benzenesulfonamide]
0.0022	O=C(CN(c1ccc(Cl)cc1)S(=O)(=O)c1ccc(Cl)cc1)N1CCCC1c1ccccc1 (centres unmarked) [Example 8, 4-Chloro-N-(4-chloro-phenyl)-N-[2-oxo-2-(2-phenyl-pyrrolidin-1-yl)-ethyl]-benzenesulfonamide]
0.0005	Cc1cccc(S(=O)(=O)N(CC(=O)N2CCCC2c2ccccc2)c2ccc(Cl)cc2)c1 (centres unmarked) [Example 11, N-(4-Chloro-phenyl)-3-methyl-N-[2-oxo-2-(2-phenyl-pyrrolidin-1-yl)-ethyl]-benzenesulfonamide]
0.0012	O=C(CN(c1ccc(Cl)cc1)S(=O)(=O)c1ccccc1Cl)N1CCCC1c1ccccc1 (centres unmarked) [Example 12, 2-Chloro-N-(4-chloro-phenyl)-N-[2-oxo-2-(2-phenyl-pyrrolidin-1-yl)-ethyl]-benzenesulfonamide]
0.0025	O=C(CN(c1ccc(Cl)cc1)S(=O)(=O)c1ccccc1F)N1CCCC1c1ccccc1 (centres unmarked) [Example 13, N-(4-Chloro-phenyl)-2-fluoro-N-[2-oxo-2-(2-phenyl-pyrrolidin-1-yl)-ethyl]-benzenesulfonamide]
0.0018	O=C(CN(c1ccc(Cl)cc1)S(=O)(=O)c1cccc(F)c1)N1CCCC1c1ccc(F)cc1 (centres unmarked) [Example 15, N-(4-Chloro-phenyl)-3-fluoro-N-{2-[2-(4-fluoro-phenyl)-pyrrolidin-1-yl]-2-oxo-ethyl}-benzenesulfonamide]
0.0009	O=C(CN(c1ccc(Cl)cc1)S(=O)(=O)c1ccccc1F)N1CCCC1c1ccc(F)cc1 (centres unmarked) [Example 16, N-(4-Chloro-phenyl)-2-fluoro-N-{2-[2-(4-fluoro-phenyl)-pyrrolidin-1-yl]-2-oxo-ethyl}-benzenesulfonamide]
0.0014	O=C(CN(c1ccc(Cl)cc1)S(=O)(=O)c1cccc(Cl)c1)N1CCCC1c1ccc(F)cc1 (centres unmarked) [Example 18, 3-Chloro-N-(4-chloro-phenyl)-N-{2-[2-(4-fluoro-phenyl)-pyrrolidin-1-yl]-2-oxo-ethyl}-benzenesulfonamide]
0.002	O=C(CN(c1ccc(Cl)cc1)S(=O)(=O)c1ccc(Cl)cc1)N1CCCC1c1ccc(F)cc1 (centres unmarked) [Example 19, 4-Chloro-N-(4-chloro-phenyl)-N-{2-[2-(4-fluoro-phenyl)-pyrrolidin-1-yl]-2-oxo-ethyl}-benzenesulfonamide]
0.0006	Cc1ccccc1S(=O)(=O)N(CC(=O)N1CCCC1c1ccc(F)cc1)c1ccc(Cl)cc1 (centres unmarked) [Example 20, N-(4-Chloro-phenyl)-N-{2-[2-(4-fluoro-phenyl)-pyrrolidin-1-yl]-2-oxo-ethyl}-2-methyl-benzenesulfonamide]
0.0006	COc1cccc(S(=O)(=O)N(CC(=O)N2CCCC2c2ccc(F)cc2)c2ccc(Cl)cc2)c1 (centres unmarked) [Example 21, N-(4-Chloro-phenyl)-N-{2-[2-(4-fluoro-phenyl)-pyrrolidin-1-yl]-2-oxo-ethyl}-3-methoxy-benzenesulfonamide]
0.0017	COc1ccc(S(=O)(=O)N(CC(=O)N2CCCC2c2ccc(F)cc2)c2ccc(Cl)cc2)cc1 (centres unmarked) [Example 22, N-(4-Chloro-phenyl)-N-{2-[2-(4-fluoro-phenyl)-pyrrolidin-1-yl]-2-oxo-ethyl}-4-methoxy-benzenesulfonamide]
0.0013	Cc1ccc(S(=O)(=O)N(CC(=O)N2CCCC2c2ccc(F)cc2)c2ccc(Cl)cc2)cc1 (centres unmarked) [Example 23, N-(4-Chloro-phenyl)-N-{2-[2-(4-fluoro-phenyl)-pyrrolidin-1-yl]-2-oxo-ethyl}-4-methyl-benzenesulfonamide]
0.0005	Cc1cccc(S(=O)(=O)N(CC(=O)N2CCCC2c2ccc(F)cc2)c2ccc(Cl)cc2)c1 (centres unmarked) [Example 24, N-(4-Chloro-phenyl)-N-{2-[2-(4-fluoro-phenyl)-pyrrolidin-1-yl]-2-oxo-ethyl}-3-methyl-benzenesulfonamide]
0.005	COc1ccc(S(=O)(=O)N(CC(=O)N2CCCC2c2ccc(F)cc2)c2ccccc2OC)cc1 (centres unmarked) [Example 26, N-{2-[2-(4-Fluoro-phenyl)-pyrrolidin-1-yl]-2-oxo-ethyl}-4-methoxy-N-(2-methoxy-phenyl)-benzenesulfonamide]
0.003	COc1ccc(N(CC(=O)N2CCCC2c2ccccc2)S(=O)(=O)c2ccc(OC)cc2)cc1 (centres unmarked) [Example 27, 4-Methoxy-N-(4-methoxy-phenyl)-N-[2-oxo-2-(2-phenyl-pyrrolidin-1-yl)-ethyl]-benzenesulfonamide]
0.0064	COc1ccc(S(=O)(=O)N(CC(=O)N2CCCC2c2ccc(F)cc2)c2cccc(F)c2)cc1 (centres unmarked) [Example 31, N-(3-Fluoro-phenyl)-N-{2-[2-(4-fluoro-phenyl)-pyrrolidin-1-yl]-2-oxo-ethyl}-4-methoxy-benzenesulfonamide]
0.0077	COc1ccc(S(=O)(=O)N(CC(=O)N2CCCC2c2ccccc2)c2cccc(F)c2)cc1 (centres unmarked) [Example 36, N-(3-Fluoro-phenyl)-4-methoxy-N-[2-oxo-2-(2-phenyl-pyrrolidin-1-yl)-ethyl]-benzenesulfonamide]
0.0096	COc1ccc(S(=O)(=O)N(CC(=O)N2CCCC2c2ccccc2)c2ccc(F)cc2)cc1 (centres unmarked) [Example 38, N-(4-Fluoro-phenyl)-4-methoxy-N-[2-oxo-2-(2-phenyl-pyrrolidin-1-yl)-ethyl]-benzenesulfonamide]
0.0005	O=C(CN(c1ccc(Cl)cc1)S(=O)(=O)c1ccc(F)cc1)N1CCCC1c1ccc(F)cc1 (centres unmarked) [Example 40, N-(4-Chloro-phenyl)-4-fluoro-N-{2-[2-(4-fluoro-phenyl)-pyrrolidin-1-yl]-2-oxo-ethyl}-benzenesulfonamide]
